What all share (assay type): cell-based
Data set [1] concerns Beclin 1/Bcl binding. The experiment in a line: Beclin 1/Bcl binding by immunoprecipitation with anti-Beclin 1 antibodies and Western blotting. The conditions noted are these: for Inhibit Beclin 1 Binding: Table 1; for Beclin 1 binding to Bcl-xl / Bcl proteins: nutrient-rich medium, 4 hr. From the text: (§1) FIGS. 5A-5C. Characterization of proBeclin 1 compounds. […] Cells were maintained in nutrient-rich medium in the absence and presence of Bcl-targeted compounds for 4 hr. The cells were then solubilized, Beclin 1 complex immunoprecipitated, and the Beclin 1 hound proteins identified by Western blotting (FIG. 5C). The IgG-LC is the immunoglobin light chain of the anti-Beclin 1 antibody that was used to immunoprecipitate the complex.
Autophagy response can be observed by visualizing the punctuate pattern of GFP-LC3 indicative of the presence of autophagic vacuoles. We can also use tandem-labeled LC3, RFP-GFP-LC3 to better assess the dynamics of the autophagy response by visualizing both autophagosomes and autolysosomes (FIG. 4D-4F). […] Finally, we determine whether the compound interferes with Beclin 1 binding to Bcl-xl (FIG. 5C) and Bcl-2 as we would suspect if the compound acts through the intended novel mechanism of action.

The test system of data set [2] is Saos-2 osteosarcoma cells expressing GFP-LC3. The experiment in a line: Autophagy response by punctate localization of GFP-LC3 to autophagic vacuoles, fluorescence microscopy. The settings on record: for Stimulation of autophagy compared with amino acid and serum starved cells (FIG. 2G): 100 μM; for Stimulation of autophagy compared with amino acid and serum starved cells (FIG. 2G) / Enhancement of autophagy (GFP-LC3 at autophagic vacuoles): enriched (Fed) medium; for Localization of GFP-LC3 to autophagic vacuoles (FIG. 4): 100 mM Bcl-targeted compounds, fed Saos2 cells; for Activate Autophagy Response: Table 1; for Induction of autophagy: Table 2. On the procedure:
FIGS. 2A-2G. Activation of autophagy by Bcl-XL targeting compounds. The positions of C2 in Site 1 (FIG. 2A), C5 in Site 1 (FIG. 2B), and C8 in Site 2 (FIG. 2C) of Bcl-xl are shown by in silico molecular docking. Saos-2 osteosarcoma cells expressing GFP-LC3 were incubated in enriched (Fed) medium in the presence of C2 (FIG. 2D), C5 (FIG. 2E) and C8 (FIG. 2F) Bcl-targeted compounds. GFP-LC3 is found diffuse throughout the cytosol and nucleus when autophagy is suppressed. Ongoing autophagy can be visualized by the presence of GFP-LC3 at autophagic vacuoles (AVs) that appear as dots (arrows). […] In FIG. 2E, Saos-2 osteosarcoma cells expressing GFP-LC3 were incubated in enriched (Fed) medium in the absence and presence of Bcl-targeted compounds or in medium lacking amino acids and serum (Starved).
(§2) FIG. 4A-4F. Activation of autophagy by Bcl-targeted compounds. The localization of GFP-LC3 to autophagic vacuoles was enhanced by […] Bcl-targeted compounds in Saos-2 osteosarcoma cells. The autophagy response in fed Saos2 cells was measured in the absence and presence of anti-Bcl compounds by visualizing the punctate localization of GFP-LC3 (FIGS. 4A-4C) and RFP-GFP-LC3 (FIGS. 4D-4F) to autophagic vacuoles. In untreated fed cells, the GFP-LC3 is localized uniformly throughout the cell. […] Autophagy in cells expressing RFP-GFP-LC3 (FIGS. 4D-4F) was activated with compound B2-1. Structures containing RFP (red, FIG. 4D) and GFP (green, FIG. 4E) are autophagosomes (arrow), while RFP (red, FIG. 4D) structures are autolysosomes (arrowhead).
as §1, with “compounds. Upon ranking 100 NCl compounds by in silico docking to Bcl-xl, the autophagy responses were evaluated in fed Saos-2 cells expressing GFP-LC3 (FIG. 5A).” for “compounds.”, “complex. The absence of Bcl-xl is indicative of an inhibition of Beclin 1 binding.” for “complex.”
This was done in Saos-2 osteosarcoma cells stably expressing the autophagosome marker, GFP-LC3. In fed cells not undergoing autophagy GFP-LC3 is a soluble protein found throughout the cytosol. In amino acid and serum starved cells, autophagy is activated and GFP-LC3 becomes associated with autophagic vacuoles that can be visualize by fluorescence microscopy.
(§3) When autophagy is suppressed, GFP-LC3 distributes uniformly throughout the cellular cytoplasm (FIG. 4A). Autophagy response can be observed by visualizing the punctuate pattern of GFP-LC3 indicative of the presence of autophagic vacuoles. We can also use tandem-labeled LC3, RFP-GFP-LC3 to better assess the dynamics of the autophagy response by visualizing both autophagosomes and autolysosomes (FIG. 4D-4F). […] To further substantiate that the accumulation of GFP-LC3 structures is not due to a blockage of basal autophagy but the positive effects of the compounds on the autophagy response, the autophagy response is validated by quantitative protein turnover measures using radiolabeled amino acids (FIG. 5B). Finally, we determine whether the compound interferes with Beclin 1 binding to Bcl-xl (FIG. 5C) and Bcl-2 as we would suspect if the compound acts through the intended novel mechanism of action.

In data set [3] the test system is NeuT (Her2-positive breast cancer cell line) cells expressing GFP-LC3. The experiment in a line: Autophagy response by GFP-LC3 localization in NeuT cells. The conditions noted are these: enriched (Fed) medium. The procedure: (§4) FIGS. 3A-3E. Effects of Bcl-XL targeted small compounds on the autophagy response and cell survival in NeuT cells. The positions of C4 in Site 1 (FIG. 3A), and C9 in Site 2 (FIG. 3B) of Bcl-xl are shown by in silico molecular docking. NeuT (Her2-positive breast cancer cell line) cells expressing GFP-LC3 were incubated in enriched (Fed) medium in the presence of C4 (FIG. 3C) and C9 (FIG. 3D) Bcl-targeted compounds. GFP-LC3 is found on autophagic vacuole that appear as dots (arrows). In FIG. 3E, the survival of NeuT cells was quantified after 20h of treatment with 0.1-1000 μM of Site 1 (C2 and C4) and Site 2 (C7 and C9) compounds.
(§5) Cell survival is suppressed by Bcl2-targeted compounds: Next, we examined the effects of the Bcl-xl targeted compounds C2, C4, C7, and C9 on autophagy and cell death in Her2/Neu-positive NeuT breast carcinoma cells (FIGS. 3A-E).

Data set [4] relates to protein degradation. Briefly: Protein degradation by pulse-chase methods using 14C-valine. The conditions noted are these: for Rates of protein degradation (FIG. 5B): 14C-valine pulse-chase, compared to a control compound, n=6; for Stimulate Protein Degradation: Table 1; for Proteolysis, bar coding of FIG. 5A: black bar stimulated, striped bar inhibited. On the procedure: as §1, with “compounds. Upon ranking 100 NCl compounds by in silico docking to Bcl-xl, the autophagy responses were evaluated in fed Saos-2 cells expressing GFP-LC3 (FIG. 5A).” for “compounds.”, “complex. The absence of Bcl-xl is indicative of an inhibition of Beclin 1 binding.” for “complex.”
as §3

Data set [5] deals with NeuT cells. On the procedure:
as §4, §5

Data set [6] relates to Saos2 cells expressing RFP-GFP-LC3. Briefly: Autophagy flux with tandem-labeled RFP-GFP-LC3 (autophagosomes and autolysosomes). The settings on record: fed Saos2 cells; listed as B2-1. The procedure:
as §2
When autophagy is suppressed, GFP-LC3 distributes uniformly throughout the cellular cytoplasm (FIG. 4A). Autophagy response can be observed by visualizing the punctuate pattern of GFP-LC3 indicative of the presence of autophagic vacuoles. […] To further substantiate that the accumulation of GFP-LC3 structures is not due to a blockage of basal autophagy but the positive effects of the compounds on the autophagy response, the autophagy response is validated by quantitative protein turnover measures using radiolabeled amino acids (FIG. 5B). […]

Entries after “also recorded” stand apart in the source; their conditions may differ. Like-named read-outs stand apart in the source and are kept apart here.

Consider `Nc1c(/N=N/c2ccc(S(=O)(=O)Nc3cnccn3)cc2)cc(S(=O)(=O)O)c2ccccc12` [NSC31331], for which, in data set [1], the “Inhibit Beclin 1 Binding” value is listed as “Yes” and the “Beclin 1 binding to Bcl-xl / Bcl proteins” value is on record as “interfere with Beclin 1 binding”. Also, in data set [2], the “Stimulation of autophagy compared with amino acid and serum starved cells (FIG. 2G)” value is on record as “promote autophagy”; the “Localization of GFP-LC3 to autophagic vacuoles (FIG. 4)” value is reported as “autophagic vacuoles are visualize as dots or ring-like structures”; the “Activate Autophagy Response” value is given as “Yes”; the Induction of autophagy entry is recorded as “Induces autophagy”. Moreover, the “Enhancement of autophagy (GFP-LC3 at autophagic vacuoles)” value (“Enhancement of autophagy” below) in data set [2] is “stimulate autophagy”. Besides, the “Autophagy in NeuT cells” value in data set [3] is recorded as “induced autophagy”. The “Rates of protein degradation (FIG. 5B)” value in data set [4] is reported as “elevated”.

In the case of `O=C(C[N+]12CN3CN(CN(C3)C1)C2)c1ccc2ccccc2c1.[Br-]` [NSC36400], the “Inhibit Beclin 1 Binding” value in data set [1] is “No”. The “Induction of cell death” value in data set [5] (Table 2, cells not given) is given as “causes cell death”. Also, in data set [2], the “Stimulation of autophagy compared with amino acid and serum starved cells (FIG. 2G)” value is recorded as “promote autophagy”; the “Activate Autophagy Response” value is “Yes”; the Induction of autophagy result was “Induces autophagy”. Further, in data set [3], the “Autophagy in NeuT cells” value is reported as “enhanced autophagy”.

In the case of `CCCCC(CC)CN1CN(CC(CC)CCCC)CC(C)(N)C1` (stereo not drawn) [NSC17764, 5-pyrimidinamine, 1,3-bis(2-ethylhexyl)hexhydro-5-methyl-], the “Inhibit Beclin 1 Binding” value in data set [1] is “No”. For the same compound, the “Induction of cell death” value in data set [5] was “causes cell death”. Also, in data set [2] (listed as C5), the “Stimulation of autophagy compared with amino acid and serum starved cells (FIG. 2G)” value is “promote autophagy; also recorded: stimulated autophagy to levels seen in amino acid and serum starved cells”; the “Enhancement of autophagy” value is reported as “enhanced autophagy”. In data set [2], the “Activate Autophagy Response” value was “Yes” and the Induction of autophagy result is given as “Induces”. For the same compound, the “Enhancement of autophagy” value in data set [2] (listed as Bx-11) is reported as “promotes an accumulation of GFP-LC3 structures; also recorded: promote the accumulation of autophagic vacuoles”. Moreover, the “Rates of protein degradation (FIG. 5B)” value in data set [4] (listed as Bx-11) is reported as “suppressed protein degradation; also recorded: inhibit protein degradation”. In addition, in data set [4], the “Stimulate Protein Degradation” value is “No” and the “Proteolysis, bar coding of FIG. 5A” value is listed as “inhibited”.

For `CN(C)CCCN1CC2CCCCC2C1` (stereo not drawn) [NSC43537, 3-(1,3,3a,4,5,6,7,7a-octahydroisoindol-2-yl)-N,N-dimethylpropan-1-amine], in data set [1], the “Inhibit Beclin 1 Binding” value was “Yes” and the “Beclin 1 binding to Bcl-xl / Bcl proteins” value is reported as “inhibiting Beclin 1 binding”. Moreover, in data set [2], the “Activate Autophagy Response” value was “Yes”, the Induction of autophagy entry was “NSC 43537 Induces autophagy; not tested for the induction of cell death” and the “Enhancement of autophagy” value is recorded as “stimulate autophagy”. Further, the “Autophagy / autophagy flux in cells expressing RFP-GFP-LC3” value in data set [6] is listed as “activated; also recorded: autophagy flux is enhanced”. The “Rates of protein degradation (FIG. 5B)” value in data set [4] (listed as B2-1) was “elevated; also recorded: stimulate”. For the same compound, in data set [4], the “Stimulate Protein Degradation” value was “Yes” and the “Proteolysis, bar coding of FIG. 5A” value was “stimulated proteolysis”.

As for `Nc1nc(S)c2ncn(C3CC(O)C(COP(=O)(O)O)O3)c2n1` (stereo not drawn) [NSC94668], the “Inhibit Beclin 1 Binding” value in data set [1] is on record as “No”. Besides, the “Beclin 1 binding to Bcl-xl / Bcl proteins” value in data set [1] (listed as Bx-22) was “did not; also recorded: do not appear to affect Beclin 1 binding”. Besides, in data set [5], the “Induction of cell death” value was “causes cell death”. Also, in data set [2], the “Stimulation of autophagy compared with amino acid and serum starved cells (FIG. 2G)” value was “promote autophagy”; the “Localization of GFP-LC3 to autophagic vacuoles (FIG. 4)” value is recorded as “autophagic vacuoles are visualize as dots or ring-like structures”; the “Activate Autophagy Response” value was “Yes”; the Induction of autophagy result is “Induces autophagy”. The “Enhancement of autophagy” value in data set [2] was “activate autophagy”. The “Autophagy in NeuT cells” value in data set [3] was “enhanced autophagy”. The “Rates of protein degradation (FIG. 5B)” value in data set [4] (listed as Bx-22) is listed as “elevated; also recorded: activate”. Further, the “Stimulate Protein Degradation” value in data set [4] is reported as “Yes”.

The record behind these values is patent US20120141491A1, “METHODS AND COMPOSITIONS FOR THE TREATMENT OF CANCERS AND PATHOGENIC INFECTIONS” (priority 2009, published 2012).
